From US20230276836A1, “ORAL RETENTION COMPOSITION” (BIZEN CHEMICAL CO., LTD., priority 2020, published 2023)

Test: Reactivity index (RI) between compound and carrageenan, viscosity change (Test Examples 2, 10)
Assay type: physicochemical
Details: uncoated compound, 10 ppm in 1 mass% carrageenan
Experimental: The measurement device, measurement, control sample, and D0 were the same as those in Test Example 1. An aqueous methanol solution containing a polyphenolic compound was prepared by dissolving the polyphenolic compound in an aqueous methanol solution (methanol concentration: 50 mass%) and diluted to 1 mg/mL in a measuring cylinder. 200 µL of this solution was added to 20 g of the same solution as the control sample (aqueous solution of 1 mass% carrageenan) and homogeneously mixed. The obtained solution was determined to be an uncoated sample. Additionally, a solution was prepared in the same manner as the uncoated sample, except that a 50% (v/v) aqueous methanol solution was used instead of the aqueous methanol solution containing a polyphenolic compound and determined to be a methanol sample. Evaluation Method: The progress distance (mm) of the control sample is D0. The progress distance (mm) of the uncoated sample is D1. The progress distance (mm) of the methanol sample is D1M. The reactivity index (RI) between a polyphenolic compound and carrageenan was calculated according to the following formula.
In this test system, the addition of an aqueous solution causes some decrease in viscosity due to a dilution effect. Thus, the determination method described above was used to detect the changes in viscosity due to the effect of a polyphenolic compound. Note that ±10% of the RI value was assumed to be within the margin of error (i.e., an RI value of 0.9 to 1.1 was assumed to be within the margin of error).
In the same manner as in Test Example 2, epigallocatechin gallate (polyphenolic compound), syringin and eleutheroside E (lignan compounds), and spermidine (basic substance) were prepared, and the effects of these substances on the viscosity of carrageenan were measured, and their reactivity was evaluated. Note that spermidine was dissolved in purified water, and the prepared aqueous solution was used as a sample.

[1] = Test Example 2, vs methanol sample, 1.1<RI = viscosity decreased
[2] = Test Example 10, spermidine dissolved in purified water

Row | SMILES | RI [1] | RI [2]
1 | O=C(/C=C/c1ccc(O)c(O)c1)O[C@@H]1C[C@](O)(C(=O)O)C[C@@H](O)[C@H]1O [Comparative Example 3, Chlorogenic Acid] | 4.1 | –
2 | O=C(OC[C@H]1O[C@@H](OC(=O)c2cc(O)c(O)c(OC(=O)c3cc(O)c(O)c(O)c3)c2)[C@H](OC(=O)c2cc(O)c(O)c(OC(=O)c3cc(O)c(O)c(O)c3)c2)[C@@H](OC(=O)c2cc(O)c(O)c(OC(=O)c3cc(O)c(O)c(O)c3)c2)[C@@H]1OC(=O)c1cc(O)c(O)c(OC(=O)c2cc(O)c(O)c(O)c2)c1)c1cc(O)c(O)c(OC(=O)c2cc(O)c(O)c(O)c2)c1 [Comparative Example 4, Tannic Acid] | 2.5 | –
3 | O=c1c(O)c(-c2ccc(O)c(O)c2)oc2cc(O)cc(O)c12 [Comparative Example 5, Quercetin] | 2.2 | –
4 | COc1cc([C@H]2OC[C@@H]3[C@@H]2CO[C@H]3c2cc(OC)c(O[C@@H]3O[C@H](CO)[C@@H](O)[C@H](O)[C@H]3O)c(OC)c2)cc(OC)c1O[C@@H]1O[C@H](CO)[C@@H](O)[C@H](O)[C@H]1O [Comparative Example 14, Eleutheroside E] | – | 2.1
5 | Oc1ccc(C=Cc2cc(O)cc(O)c2)cc1 [Comparative Example 6, Resveratrol] | 3.5 | –
6 | O=C(O[C@@H]1Cc2c(O)cc(O)cc2O[C@@H]1c1cc(O)c(O)c(O)c1)c1cc(O)c(O)c(O)c1 [Comparative Example 12, Epigallocatechin Gallate] | – | 4.4
7 | NCCCCNCCCN [Comparative Example 15, Spermidine] | – | 1.5
8 | COc1cc(/C=C/CO)cc(OC)c1O[C@@H]1O[C@H](CO)[C@@H](O)[C@H](O)[C@H]1O [Comparative Example 13, Syringin] | – | 2.3
